Results from ChEMBL document CHEMBL4406824, “Phenolic N-monosubstituted carbamates: Antitubercular and toxicity evaluation of multi-targeting compounds” (Eur J Med Chem, 2019).
Converted amounts (≈) assume the structure as drawn.

How the values were obtained:
[1] = tested on: Mycolicibacterium smegmatis; assay: Antimycobacterial activity against Mycobacterium smegmatis DSM 43465 after 120 hr by resazurin dye based microdilution method; format: functional; details: DSM 43465, 120 h
Mycolicibacterium aurum = assay: Antimycobacterial activity against Mycobacterium aurum DSM 43999 after 72 hr by resazurin dye based microdilution method; format: functional; details: DSM 43999, 72 h
[2] = tested on: Mycobacterium tuberculosis; format: functional; details: H37Rv 331/88, 504 h
HepG2 [3] = assay: Cytostatic activity against human HepG2 cells preincubated for overnight in serum free medium followed by compound wash out and further incubated for 72 hrs in presence of serum by MTT assay; format: ADME, cell-based
Mycobacterium avium [4] = assay: Antimycobacterial activity against Mycobacterium avium 330/88 after 14 days; format: functional; details: 330/88, 336 h
Mycobacterium kansasii [5] = assay: Antimycobacterial activity against Mycobacterium kansasii 235/80 after 14 days; format: functional; details: 235/80, 336 h
[6] = tested on: Mycobacterium tuberculosis; assay: Antimycobacterial activity against Mycobacterium tuberculosis H37Ra ITM-M006710 after 48 hr by resazurin dye based microdilution method; format: functional; details: H37Ra ITM-M006710, 48 h
[7] = tested on: Mycobacterium tuberculosis H37Rv; assay: Inhibition of recombinant Mycobacterium tuberculosis H37Rv ICL1 expressed in Escherichia coli BL21 (DE3) cells at 10 uM using (+)-potassium Ds-threo-isocitrate as substrate by glyoxylate phenyl hydrazone formation assay relative to control
[8] = tested on: Mycobacterium tuberculosis; format: functional, H37Rv 331/88; design: reference not given here
Mycobacterium kansasii [9] = assay: Antimycobacterial activity against Mycobacterium kansasii 6509/96 after 7 days; format: functional; details: 6509/96, 168 h
HepG2 [10] = assay: Cytotoxicity against human HepG2 cells assessed as reduction in cell viability after overnight incubation by MTT assay; format: cell-based
Mycobacterium kansasii [11] = assay: Antimycobacterial activity against Mycobacterium kansasii 235/80 after 21 days; format: functional; details: 235/80, 504 h
Mycobacterium kansasii [12] = assay: Potency index, ratio of p-aminosalicylic acid MIC to compound MIC for antimycobacterial activity against Mycobacterium kansasii 6509/96; format: functional
Mycobacterium kansasii [13] = assay: Potency index, ratio of p-aminosalicylic acid MIC to compound MIC for antimycobacterial activity against Mycobacterium kansasii 235/80; format: functional
Mycobacterium kansasii [14] = assay: Antimycobacterial activity against Mycobacterium kansasii 235/80 after 7 days; format: functional; details: 235/80, 168 h
Mycobacterium kansasii [15] = assay: Antimycobacterial activity against Mycobacterium kansasii 6509/96 after 14 days; format: functional; details: 6509/96, 336 h
Mycobacterium kansasii [16] = assay: Antimycobacterial activity against Mycobacterium kansasii 6509/96 after 21 days; format: functional; details: 6509/96, 504 h
in vitro = details: human, HepG2 cells
Description: Selectivity index, ratio of IC50 for human HepG2 cells to MIC for antimycobacterial activity against Mycobacterium tuberculosis H37Rv

[17] = tested on: Mycobacterium tuberculosis; format: functional; details: H37Rv 331/88, 336 h
Mycobacterium avium [18] = assay: Antimycobacterial activity against Mycobacterium avium 330/88 after 21 days; format: functional; details: 330/88, 504 h

Row | SMILES | MIC [1] [µg/mL] | MIC (Mycolicibacterium aurum) [µg/mL] | MIC [2] [µM] | IC50 (HepG2 [3]) [µM] | MIC (Mycobacterium avium [4]) [µM] | MIC (Mycobacterium kansasii [5]) [µM] | MIC [6] | inhibition [7] [%] | Ratio [8] | MIC (Mycobacterium kansasii [9]) [µM] | IC50 (HepG2 [10]) [µM] | MIC (Mycobacterium kansasii [11]) [µM] | Ratio (Mycobacterium kansasii [12]) | Ratio (Mycobacterium kansasii [13]) | MIC (Mycobacterium kansasii [14]) [µM] | MIC (Mycobacterium kansasii [15]) [µM] | MIC (Mycobacterium kansasii [16]) [µM] | selectivity ratio (in vitro) | MIC [17] [µM] | MIC (Mycobacterium avium [18]) [µM]
1 | O=C(Nc1ccccc1)Oc1ccc(Cl)cc1C(=O)Nc1ccc(Cl)cc1 | 1.56 (≈ 3.89 µM) | 1.56 (≈ 3.89 µM) | 16 (≈ 6.42 µg/mL) | 0.9 | 16 (≈ 6.42 µg/mL) | 32 (≈ 12.8 µg/mL) | 1.56 µg/mL | 10 | >125 | 8 (≈ 3.21 µg/mL) | > 250 | 32 (≈ 12.8 µg/mL) | >250 | >250 | 16 (≈ 6.42 µg/mL) | 16 (≈ 6.42 µg/mL) | 16 (≈ 6.42 µg/mL) | > 15.6 | 16 (≈ 6.42 µg/mL) | 16 (≈ 6.42 µg/mL)
2 | O=C(NC1CCCCC1)Oc1ccc(Cl)cc1C(=O)Nc1ccc(F)cc1 | 3.91 (≈ 10 µM) | 1.56 (≈ 3.99 µM) | 8 (≈ 3.13 µg/mL) | 8.6 | 32 (≈ 12.5 µg/mL) | 32 (≈ 12.5 µg/mL) | 3.12 µg/mL | 18 | >125 | 16 (≈ 6.25 µg/mL) | 21.2 | 32 (≈ 12.5 µg/mL) | >250 | >250 | 16 (≈ 6.25 µg/mL) | 16 (≈ 6.25 µg/mL) | 32 (≈ 12.5 µg/mL) | 2.7 to 5.3 | 4 (≈ 1.56 µg/mL) | 32 (≈ 12.5 µg/mL)
3 | O=C(NCCc1ccccc1)Oc1ccc(Cl)cc1C(=O)Nc1ccc(Cl)cc1 | 1.56 (≈ 3.63 µM) | 1.56 (≈ 3.63 µM) | 16 (≈ 6.87 µg/mL) | 5.1 | 8 (≈ 3.43 µg/mL) | 8 (≈ 3.43 µg/mL) | 1.56 µg/mL | 10 | >125 | 4 (≈ 1.72 µg/mL) | 15 | 16 (≈ 6.87 µg/mL) | >250 | >250 | 8 (≈ 3.43 µg/mL) | 8 (≈ 3.43 µg/mL) | 8 (≈ 3.43 µg/mL) | 1.9 | 8 (≈ 3.43 µg/mL) | 8 (≈ 3.43 µg/mL)
4 | O=C(NC12CC3CC(CC(C3)C1)C2)Oc1ccc(Cl)cc1C(=O)Nc1ccc(F)cc1 | 1.98 (≈ 4.47 µM) | 1.98 (≈ 4.47 µM) | 4 (≈ 1.77 µg/mL) | > 125 | 32 (≈ 14.2 µg/mL) | 8 (≈ 3.54 µg/mL) | 2.24 µM | 14 | >125 | 8 (≈ 3.54 µg/mL) | > 125 | 16 (≈ 7.09 µg/mL) | >250 | >250 | 8 (≈ 3.54 µg/mL) | 8 (≈ 3.54 µg/mL) | 16 (≈ 7.09 µg/mL) | 31.3 | 4 (≈ 1.77 µg/mL) | 32 (≈ 14.2 µg/mL)
5 | O=C(NC12CC3CC(CC(C3)C1)C2)Oc1ccc(Cl)cc1C(=O)Nc1ccc(Br)cc1 | 3.12 (≈ 6.2 µM) | 1.56 (≈ 3.1 µM) | 8 (≈ 4.03 µg/mL) | 4.35 | 8 (≈ 4.03 µg/mL) | 8 (≈ 4.03 µg/mL) | 1.56 µg/mL | 18 | >125 | 4 (≈ 2.02 µg/mL) | 4.2 | 8 (≈ 4.03 µg/mL) | >250 | >250 | 4 (≈ 2.02 µg/mL) | 8 (≈ 4.03 µg/mL) | 8 (≈ 4.03 µg/mL) | 0.5 | 8 (≈ 4.03 µg/mL) | 8 (≈ 4.03 µg/mL)
6 | O=C(NC12CC3CC(CC(C3)C1)C2)Oc1ccc(Cl)cc1C(=O)Nc1ccc(Cl)cc1 | 3.91 (≈ 8.51 µM) | 3.91 (≈ 8.51 µM) | 16 (≈ 7.35 µg/mL) | 8.15 | 16 (≈ 7.35 µg/mL) | 16 (≈ 7.35 µg/mL) | 3.12 µg/mL | 11 | >125 | 8 (≈ 3.67 µg/mL) | 24 | 16 (≈ 7.35 µg/mL) | >250 | >250 | 8 (≈ 3.67 µg/mL) | 16 (≈ 7.35 µg/mL) | 16 (≈ 7.35 µg/mL) | 1.5 | 16 (≈ 7.35 µg/mL) | 16 (≈ 7.35 µg/mL)
7 | O=C(NCc1ccccc1)Oc1ccc(Cl)cc1C(=O)Nc1ccc(Cl)cc1 | 1.56 (≈ 3.76 µM) | 1.56 (≈ 3.76 µM) | 16 (≈ 6.64 µg/mL) | 6.4 | 8 (≈ 3.32 µg/mL) | 8 (≈ 3.32 µg/mL) | 1.56 µg/mL | 11 | >125 | 4 (≈ 1.66 µg/mL) | > 250 | 16 (≈ 6.64 µg/mL) | >250 | >250 | 8 (≈ 3.32 µg/mL) | 8 (≈ 3.32 µg/mL) | 8 (≈ 3.32 µg/mL) | > 15.6 | 16 (≈ 6.64 µg/mL) | 16 (≈ 6.64 µg/mL)
8 | O=C(NCCc1ccccc1)Oc1ccc(Cl)cc1C(=O)Nc1ccc(Br)cc1 | 3.12 (≈ 6.6 µM) | 1.56 (≈ 3.29 µM) | 8 (≈ 3.79 µg/mL) | 2.2 | 8 (≈ 3.79 µg/mL) | 8 (≈ 3.79 µg/mL) | 1.65 µM | 17 | >125 | 4 (≈ 1.9 µg/mL) | > 50 | 8 (≈ 3.79 µg/mL) | >250 | >250 | 4 (≈ 1.9 µg/mL) | 8 (≈ 3.79 µg/mL) | 8 (≈ 3.79 µg/mL) | > 6.3 | 8 (≈ 3.79 µg/mL) | 8 (≈ 3.79 µg/mL)
9 | O=C(NC1CCCCC1)Oc1ccc(Cl)cc1C(=O)Nc1ccc(Br)cc1 | 1.56 (≈ 3.45 µM) | 1.56 (≈ 3.45 µM) | 16 (≈ 7.23 µg/mL) | 9.4 | 8 (≈ 3.61 µg/mL) | 8 (≈ 3.61 µg/mL) | 1.56 µg/mL | 16 | >125 | 4 (≈ 1.81 µg/mL) | > 50 | 8 (≈ 3.61 µg/mL) | >250 | >250 | 4 (≈ 1.81 µg/mL) | 8 (≈ 3.61 µg/mL) | 8 (≈ 3.61 µg/mL) | > 6.3 | 8 (≈ 3.61 µg/mL) | 16 (≈ 7.23 µg/mL)
10 | O=C(NC12CC3CC(CC(C3)C1)C2)Oc1ccc(Cl)cc1 | ≥ 125 | ≥ 125 | 125 (≈ 38.2 µg/mL) | > 250 | 125 (≈ 38.2 µg/mL) | 125 (≈ 38.2 µg/mL) | 62.5 µg/mL | 13 | – | 125 (≈ 38.2 µg/mL) | > 125 | 125 (≈ 38.2 µg/mL) | – | – | 125 (≈ 38.2 µg/mL) | 125 (≈ 38.2 µg/mL) | 125 (≈ 38.2 µg/mL) | > 1 | 62.5 (≈ 19.1 µg/mL) | 250 (≈ 76.5 µg/mL)
